{"source": "patent US7138361B2", "about": "“Herbicidal heterocycles” (E. I. du Pont de Nemours and Company, priority 2000, dated 2006)", "type_in_all_cases": "in vivo", "key": {"rice (Oryza saliva)": {"tested_on": "rice (Oryza saliva)", "assay": "Test C flooded paddy test", "details": "for Rice plant response rating: Flooded Paddy, scale 0 to 100, 0 no effect, 100 complete control; for Plant response rating, Rice: flooded paddy test, scale 0 to 100 (0 no effect, 100 complete control)", "how_it_was_run": "(§1)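 Rice and three paddy weeds were grown to the 2-leaf stage under flooded conditions, then treated and kept in a greenhouse for 12–14 days. Response was rated visually against untreated controls on a 0–100 scale, where 100 is complete control.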"}, "[1]": {"tested_on": "barnyardgrass (Echinochloa crus-galli)", "assay": "Test C flooded paddy test", "details": "for Plant response rating, Barnyardgrass: flooded paddy test, scale 0 to 100 (0 no effect, 100 complete control)", "how_it_was_run": "as §1"}, "[2]": {"tested_on": "johnsongrass (Sorghum halepense)", "assay": "Test C preemergence", "how_it_was_run": "(§2)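 Plants held in greenhouse for 12–14 days post-application are scored by eye against controls on a 0–100 control scale. Application timing: preemergence on sown seed, or postemergence on 2–18 cm plants.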"}, "[3]": {"tested_on": "morningglory (Ipomoea hederacea)", "assay": "Test C preemergence", "how_it_was_run": "as §2"}, "[4]": {"tested_on": "pigweed (Amaranthus retroflexus)", "assay": "Test C preemergence", "how_it_was_run": "as §2"}, "[5]": {"tested_on": "giant foxtail (Setaria faberii)", "assay": "Test C preemergence", "how_it_was_run": "as §2"}, "soybean (Glycine max)": {"tested_on": "soybean (Glycine max)", "assay": "Test C preemergence", "how_it_was_run": "as §2"}, "[6]": {"tested_on": "woolly cupgrass (Eriochloa villosa)", "assay": "Test C preemergence", "how_it_was_run": "as §2"}, "kochia (Kochia scoparia)": {"tested_on": "kochia (Kochia scoparia)", "assay": "Test C preemergence", "how_it_was_run": "as §2"}, "[7]": {"tested_on": "bermudagrass (Cynodon dactylon)", "assay": "Test C preemergence", "how_it_was_run": "as §2"}, "corn (Zea mays)": {"tested_on": "corn (Zea mays)", "assay": "Test C preemergence", "how_it_was_run": "as §2"}, "[8]": {"tested_on": "yellow nutsedge (Cyperus esculentus)", "assay": "Test C preemergence", "how_it_was_run": "as §2"}, "[9]": {"tested_on": "crabgrass (Digitaria sanguinalis)", "assay": "Test C preemergence", "how_it_was_run": "as §2"}, "Sunflower [10]": {"tested_on": "Sunflower", "assay": "Test C preemergence", "details": "Rate 125 g/ha; scale 0 to 100, 0 no effect, 100 complete control"}, "[11]": {"tested_on": "lambsquarters (Chenopodium album)", "assay": "Test C preemergence", "how_it_was_run": "as §2"}, "[12]": {"tested_on": "Surinam grass (Brachiaria decumbens)", "assay": "Test C preemergence", "how_it_was_run": "as §2"}, "[13]": {"tested_on": "common ragweed (Ambrosia elatior)", "assay": "Test C preemergence", "how_it_was_run": "as §2"}, "[14]": {"tested_on": "velvetleaf (Abutilon theophrasti)", "assay": "Test C preemergence", "how_it_was_run": "as §2"}, "Nightshade": {"tested_on": "Nightshade", "assay": "Test C preemergence"}, "[15]": {"tested_on": "cocklebur (Xanthium strumarium)", "assay": "Test C preemergence", "how_it_was_run": "as §2"}, "[16]": {"tested_on": "goosegrass (Eleusine indica)", "assay": "Test C preemergence", "how_it_was_run": "as §2"}, "Sunflower [17]": {"tested_on": "Sunflower", "assay": "Test C preemergence", "details": "Rate 500 g/ha, visual evaluation after 12 to 14 days"}, "[18]": {"details": "Rate 125 g/ha, scale 0 to 100, 0 no effect, 100 complete control"}, "[19]": {"details": "preemergence, Rate 62 g/ha, scale 0 to 100"}, "[20]": {"details": "preemergence, Rate 500 g/ha, visual evaluation after 12 to 14 days"}, "[21]": {"details": "preemergence, Rate 250 g/ha, scale 0 to 100, 0 no effect, 100 complete control"}}, "data": [{"molecule": "COc1cc(N2CCC(n3ccc(C(C)C)n3)C2=O)ccc1Cl", "note": "(centres unmarked) [Compound 120]", "values": [{"measurement": "Rice plant response rating", "setting": "rice (Oryza saliva); Rate 250 g/ha", "result": 30}, {"measurement": "Rice plant response rating", "setting": "rice (Oryza saliva); Rate 500 g/ha", "result": 80}, {"measurement": "Plant response rating, Rice", "setting": "rice (Oryza saliva); Rate 62 g/ha", "result": 0}, {"measurement": "Plant response rating, Rice", "setting": "rice (Oryza saliva); Rate 125 g/ha", "result": 20}, {"measurement": "Barnyardgrass plant response rating", "setting": "[1]; Flooded Paddy, Rate 250 g/ha, scale 0 to 100, 0 no effect, 100 complete control", "result": 80}, {"measurement": "Plant response rating, Barnyardgrass", "setting": "[1]; Rate 62 g/ha", "result": 20}, {"measurement": "Plant response rating, Barnyardgrass", "setting": "[1]; Rate 125 g/ha", "result": 50}, {"measurement": "Plant response rating, Johnsongrass", "setting": "[2]; [18]", "result": 80}, {"measurement": "Plant response rating, Johnsongrass", "setting": "[2]; [19]", "result": 20}, {"measurement": "Plant response rating (0 to 100), Johnsongrass", "setting": "[2]; [20]", "result": 100}, {"measurement": "Plant response rating, Johnsongrass", "setting": "[2]; [21]", "result": 100}, {"measurement": "Plant response rating, Morningglory", "setting": "[3]; [18]", "result": 60}, {"measurement": "Plant response rating, Morningglory", "setting": "[3]; [19]", "result": 60}, {"measurement": "Plant response rating (0 to 100), Morningglory", "setting": "[3]; [20]", "result": 100}, {"measurement": "Plant response rating, Morningglory", "setting": "[3]; [21]", "result": 100}, {"measurement": "Plant response rating, Pigweed", "setting": "[4]; [18]", "result": 100}, {"measurement": "Plant response rating, Pigweed", "setting": "[4]; [19]", "result": 100}, {"measurement": "Plant response rating (0 to 100), Pigweed", "setting": "[4]; [20]", "result": 70}, {"measurement": "Plant response rating, Pigweed", "setting": "[4]; [21]", "result": 50}, {"measurement": "Plant response rating, Foxtail, Giant", "setting": "[5]; [18]", "result": 50}, {"measurement": "Plant response rating, Foxtail, Giant", "setting": "[5]; [19]", "result": 50}, {"measurement": "Plant response rating (0 to 100), Foxtail, Giant", "setting": "[5]; [20]", "result": 100}, {"measurement": "Plant response rating, Foxtail, Giant", "setting": "[5]; [21]", "result": 60}, {"measurement": "Plant response rating, Soybean", "setting": "soybean (Glycine max); [18]", "result": 70}, {"measurement": "Plant response rating, Soybean", "setting": "soybean (Glycine max); [19]", "result": 60}, {"measurement": "Plant response rating (0 to 100), Soybean", "setting": "soybean (Glycine max); [20]", "result": 100}, {"measurement": "Plant response rating, Soybean", "setting": "soybean (Glycine max); [21]", "result": 80}, {"measurement": "Plant response rating, Cupgrass, Woolly", "setting": "[6]; [18]", "result": 100}, {"measurement": "Plant response rating, Cupgrass, Woolly", "setting": "[6]; [19]", "result": 100}, {"measurement": "Plant response rating (0 to 100), Cupgrass, Woolly", "setting": "[6]; [20]", "result": 100}, {"measurement": "Plant response rating, Cupgrass, Woolly", "setting": "[6]; [21]", "result": 100}, {"measurement": "Plant response rating, Kochia", "setting": "kochia (Kochia scoparia); [18]", "result": 100}, {"measurement": "Plant response rating, Kochia", "setting": "kochia (Kochia scoparia); [19]", "result": 100}, {"measurement": "Plant response rating (0 to 100), Kochia", "setting": "kochia (Kochia scoparia); [20]", "result": 100}, {"measurement": "Plant response rating, Kochia", "setting": "kochia (Kochia scoparia); [21]", "result": 100}, {"measurement": "Plant response rating, Bermudagrass", "setting": "[7]; [18]", "result": 100}, {"measurement": "Plant response rating, Bermudagrass", "setting": "[7]; [19]", "result": 100}, {"measurement": "Plant response rating (0 to 100 where 0 is no effect and 100 is complete control), Bermudagrass", "setting": "[7]; [20]", "result": 100}, {"measurement": "Plant response rating, Bermudagrass", "setting": "[7]; [21]", "result": 100}, {"measurement": "Plant response rating, Corn", "setting": "corn (Zea mays); [18]", "result": 0}, {"measurement": "Plant response rating, Corn", "setting": "corn (Zea mays); [19]", "result": 0}, {"measurement": "Plant response rating (0 to 100), Corn", "setting": "corn (Zea mays); [20]", "result": 60}, {"measurement": "Plant response rating, Corn", "setting": "corn (Zea mays); [21]", "result": 20}, {"measurement": "Plant response rating, Nutsedge", "setting": "[8]; [18]", "result": 80}, {"measurement": "Plant response rating, Nutsedge", "setting": "[8]; [19]", "result": 40}, {"measurement": "Plant response rating (0 to 100), Nutsedge", "setting": "[8]; [20]", "result": 100}, {"measurement": "Plant response rating, Nutsedge", "setting": "[8]; [21]", "result": 100}, {"measurement": "Plant response rating, Crabgrass", "setting": "[9]; [18]", "result": 100}, {"measurement": "Plant response rating, Crabgrass", "setting": "[9]; [19]", "result": 100}, {"measurement": "Plant response rating (0 to 100), Crabgrass", "setting": "[9]; [20]", "result": 100}, {"measurement": "Plant response rating, Crabgrass", "setting": "[9]; [21]", "result": 100}, {"measurement": "Plant response rating, Sunflower", "setting": "Sunflower [10]", "result": 90}, {"measurement": "Plant response rating, Lambsquarters", "setting": "[11]; [18]", "result": 100}, {"measurement": "Plant response rating, Lambsquarters", "setting": "[11]; [19]", "result": 100}, {"measurement": "Plant response rating (0 to 100), Lambsquarters", "setting": "[11]; [20]", "result": 100}, {"measurement": "Plant response rating, Lambsquarters", "setting": "[11]; [21]", "result": 100}, {"measurement": "Plant response rating, Surinam grass", "setting": "[12]; [18]", "result": 100}, {"measurement": "Plant response rating, Surinam grass", "setting": "[12]; [19]", "result": 90}, {"measurement": "Plant response rating (0 to 100), Surinam grass", "setting": "[12]; [20]", "result": 100}, {"measurement": "Plant response rating, Surinam grass", "setting": "[12]; [21]", "result": 100}, {"measurement": "Plant response rating, Ragweed, Common", "setting": "[13]; [18]", "result": 100}, {"measurement": "Plant response rating, Ragweed, Common", "setting": "[13]; [19]", "result": 100}, {"measurement": "Plant response rating (0 to 100), Ragweed, Common", "setting": "[13]; [20]", "result": 100}, {"measurement": "Plant response rating, Ragweed, Common", "setting": "[13]; [21]", "result": 100}, {"measurement": "Plant response rating, Velvetleaf", "setting": "[14]; [18]", "result": 100}, {"measurement": "Plant response rating, Velvetleaf", "setting": "[14]; [19]", "result": 80}, {"measurement": "Plant response rating (0 to 100), Velvetleaf", "setting": "[14]; [20]", "result": 100}, {"measurement": "Plant response rating, Velvetleaf", "setting": "[14]; [21]", "result": 100}, {"measurement": "Plant response rating, Nightshade", "setting": "Nightshade; Rate 62 g/ha, scale 0 to 100", "result": 100}, {"measurement": "Plant response rating, Nightshade", "setting": "Nightshade; [18]", "result": 100}, {"measurement": "Plant response rating, Nightshade", "setting": "Nightshade; Rate 250 g/ha, scale 0 to 100, 0 no effect, 100 complete control", "result": 100}, {"measurement": "Plant response rating, Cocklebur", "setting": "[15]; [18]", "result": 0}, {"measurement": "Plant response rating, Cocklebur", "setting": "[15]; [19]", "result": 0}, {"measurement": "Plant response rating (0 to 100), Cocklebur", "setting": "[15]; [20]", "result": 30}, {"measurement": "Plant response rating, Cocklebur", "setting": "[15]; [21]", "result": 30}, {"measurement": "Plant response rating, Goosegrass", "setting": "[16]; [18]", "result": 100}, {"measurement": "Plant response rating, Goosegrass", "setting": "[16]; [19]", "result": 100}, {"measurement": "Plant response rating (0 to 100), Goosegrass", "setting": "[16]; [20]", "result": 100}, {"measurement": "Plant response rating, Goosegrass", "setting": "[16]; [21]", "result": 100}, {"measurement": "Plant response rating (0 to 100), Sunflower", "setting": "Sunflower [17]", "result": 100}]}]}
